# Experimental data as given in patent US11433057B2, “Method for improving or enhancing cognition” (VANDA PHARMACEUTICALS INC., priority 2016, dated 2022).
# How the values were obtained:
# Type in all cases: in vivo, human
# [1] = system: patients with findings consistent with mild AD or amnestic MCI; experiment: CANTAB Rapid Visual Information Processing (RVP), 4-week placebo-controlled study; settings: 15 mg daily oral, study day 1
# Method: (§1) The following example illustrates the methods of the invention, in which a 4-week, parallel-group, randomized, double-blind, placebo-controlled, adaptive proof of concept study of AQW051 at up to three dose levels for the treatment of patients with findings consistent with mild Alzheimer's disease (AD) or Mild Cognitive Impairment (amnestic MCI) was conducted in two stages.
# (§2) To assess AQW051 as a cognitive enhancer, as measured by selected tests [Paired Associates Learning (PAL), Spatial Working Memory (SWM), Rapid Visual Information Processing (RVP)] from the Cambridge Neuropsychological Test Automated Battery (CANTAB) computerized cognitive test battery, in patients with findings consistent with mild AD or amnestic MCI.
# The investigational drug AQW51 was provided as either 0.5 mg, 5 mg, or 25 mg capsules. In stage I only 5 mg capsules were used. All groups received 15 mg of AQW051 daily for 4 weeks. […]
# (§3) The different CANTAB readouts were analyzed separately by rank analyses of covariance, including “treatment” and “stratum” (MCI, AD) as fixed effects and the corresponding baseline value as covariate. […] The different scores from the ADAS-Cog, QoL-AD, the DAD and the MMSE were analyzed using standard analyses of covariance. Safety and tolerability variables measures were analyzed by means of descriptive statistics.
# [2] = system: patients with findings consistent with mild AD or amnestic MCI; experiment: Adverse events, safety analysis set, 4-week placebo-controlled study; settings: 15 mg daily oral, 4 weeks
# Method: as §1
# To explore the safety and tolerability of AQW051 in patients with findings consistent with mild AD or amnestic MCI.
# (§4) The investigational drug AQW51 was provided as either 0.5 mg, 5 mg, or 25 mg capsules. In stage I only 5 mg capsules were used. All groups received 15 mg of AQW051 daily for 4 weeks.
# (§5) On Day 1, 8, 15, 22 and 28, the study drug was administered by study personnel and was taken orally with 240 ml of water after light breakfast. On all other study treatment days, patients self-administered the study medication in the morning after light breakfast.
# (§6) The different CANTAB readouts were analyzed separately by rank analyses of covariance, including “treatment” and “stratum” (MCI, AD) as fixed effects and the corresponding baseline value as covariate. The comparison of interest was the contrast between active treatment and placebo; tests were performed to the one-sided 10% level without multiplicity-adjustment. Point and interval estimates were produced by the baseline-adjusted stratified Hodges-Lehmann method. In addition, sensitivity analyses were performed using standard analyses of covariance, to complement the aforementioned nonparametric methods. The items “errors at the 6 pattern stage” and “total trials adjusted” of the PAL task at day 28 played a key role at the interim analysis. At the end of stage 1, the conditional power of the study to reach an overall significant result in both these key endpoints at the final analysis was estimated by bootstrap methods. The different scores from the ADAS-Cog, QoL-AD, the DAD and the MMSE were analyzed using standard analyses of covariance. Safety and tolerability variables measures were analyzed by means of descriptive statistics.
# Under one treatment, a subject with multiple occurrences of an adverse event is counted only once in the AE category. N=number of subject studied; n=number of subjects with at least 1 AE in the category. Only adverse events occurring at or after first drug intake are included.
# [3] = system: patients with findings consistent with mild AD or amnestic MCI; experiment: CANTAB Graded Naming Test-Revised (GNT), 4-week placebo-controlled study; settings: 15 mg daily oral; study day 28; PD analysis set N=54; p=0.8191
# Method: as §1
# (§7) To explore effects of AQW051 on other cognitive functions not assessed by the primary measures (CANTAB tests Pattern Recognition Memory (PRM), Choice Reaction Time (CRT), Graded Naming Test-Revised (GNT).
# as §4
# On Day 1, 8, 15, 22 and 28, the study drug was administered by study personnel and was taken orally with 240 ml of water after light breakfast. […]
# as §3
# [4] = system: patients with findings consistent with mild AD or amnestic MCI; experiment: CANTAB Choice Reaction Time (CRT), 4-week placebo-controlled study; settings: 15 mg daily oral, study day 28
# Method: as §1, §7, §4, §5, §6
# [5] = system: patients with findings consistent with mild AD or amnestic MCI; experiment: CANTAB Pattern Recognition Memory (PRM), 4-week placebo-controlled study; settings: 15 mg daily oral, study day 28, PD analysis set N=54
# Method: as §1, §7, §4, §5, §6
# [6] = system: patients with findings consistent with mild AD or amnestic MCI; experiment: CANTAB Spatial Working Memory (SWM), 4-week placebo-controlled study; settings: 15 mg daily oral, study day 28
# Method: as §1, §2, §4, §5, §6
# [7] = system: patients with findings consistent with mild AD or amnestic MCI; experiment: CANTAB Paired Associates Learning (PAL), 4-week placebo-controlled study; settings: 15 mg daily oral, study day 1
# Method: as §1, §2, §4, §5, §6
compound,measurement,setting,value
"Cc1ccc(-c2ccc(O[C@H]3CN4CCC3CC4)cn2)cc1 [AQW051, (R)-3-(6-p-tolyl-pyridin-3-yloxy)-1-aza-bicyclo[2.2.2]octane]","RVP Mean latency, Difference AQW051 15 mg vs. Placebo","[1]; MCI patient only N=38, p=0.0419",−22
same,"RVP Mean latency, Difference AQW051 15 mg vs. Placebo","[1]; all patients N=54, p=0.0292",−21.5
same,"Flatulence related to study drug, (%)",[2]; AD N = 7,14.3%
same,"Patients with AE(s) related to study drug, (%)",[2]; AD N = 7,14.3%
same,"Constipation related to study drug, (%)",[2]; MCI N = 20,5.0%
same,"Dysgraphia related to study drug, (%)",[2]; MCI N = 20,5.0%
same,"Headache related to study drug, (%)",[2]; MCI N = 20,10.0%
same,"Increased tendency to bruise related to study drug, (%)",[2]; MCI N = 20,5.0%
same,"Muscle spasms related to study drug, (%)",[2]; MCI N = 20,5.0%
same,"Pain in extremity related to study drug, (%)",[2]; MCI N = 20,5.0%
same,"Patients with AE(s) related to study drug, (%)",[2]; MCI N = 20,15.0%
same,"Pruritus related to study drug, (%)",[2]; MCI N = 20,5.0%
same,"Bronchitis AE, (%) of subjects",[2]; N = 27,(3.7) %
same,"Bronchitis AE, n of subjects",[2]; N = 27,1
same,"Chalazion AE, (%) of subjects",[2]; N = 27,(3.7) %
same,"Chalazion AE, n of subjects",[2]; N = 27,1
same,"Constipation AE, (%) of subjects",[2]; N = 27,(3.7) %
same,"Constipation AE, n of subjects",[2]; N = 27,1
same,"Dysgraphia AE, (%) of subjects",[2]; N = 27,(3.7) %
same,"Dysgraphia AE, n of subjects",[2]; N = 27,1
same,"Ear and Labyrinth disorders AEs, (%) of subjects",[2]; N = 27,(3.7) %
same,"Ear and Labyrinth disorders AEs, n of subjects",[2]; N = 27,1
same,"Epistaxis AE, (%) of subjects",[2]; N = 27,(3.7) %
same,"Epistaxis AE, n of subjects",[2]; N = 27,1
same,"Eye disorders AEs, (%) of subjects",[2]; N = 27,(3.7) %
same,"Eye disorders AEs, n of subjects",[2]; N = 27,1
same,"Flatulence AE, (%) of subjects",[2]; N = 27,(3.7) %
same,"Flatulence AE, n of subjects",[2]; N = 27,1
same,"Gastrointestinal disorders AEs, (%) of subjects",[2]; N = 27,(7.4) %
same,"Gastrointestinal disorders AEs, n of subjects",[2]; N = 27,2
same,"Headache AE, (%) of subjects",[2]; N = 27,(7.4) %
same,"Headache AE, n of subjects",[2]; N = 27,2
same,"Hepatic function abnormal AE, (%) of subjects",[2]; N = 27,(3.7) %
same,"Hepatic function abnormal AE, n of subjects",[2]; N = 27,1
same,"Hepatobiliary disorders AEs, (%) of subjects",[2]; N = 27,(3.7) %
same,"Hepatobiliary disorders AEs, n of subjects",[2]; N = 27,1
same,"Increased tendency to bruise AE, (%) of subjects",[2]; N = 27,(3.7) %
same,"Increased tendency to bruise AE, n of subjects",[2]; N = 27,1
same,"Infections and infestations AEs, (%) of subjects",[2]; N = 27,(11.1) %
same,"Infections and infestations AEs, n of subjects",[2]; N = 27,3
same,"Laryngitis AE, (%) of subjects",[2]; N = 27,(3.7) %
same,"Laryngitis AE, n of subjects",[2]; N = 27,1
same,"Muscle spasms AE, (%) of subjects",[2]; N = 27,(3.7) %
same,"Muscle spasms AE, n of subjects",[2]; N = 27,1
same,"Musculoskeletal and connective tissue disorders AEs, (%) of subjects",[2]; N = 27,(7.4) %
same,"Musculoskeletal and connective tissue disorders AEs, n of subjects",[2]; N = 27,2
same,"Nasopharyngitis AE, (%) of subjects",[2]; N = 27,(3.7) %
same,"Nasopharyngitis AE, n of subjects",[2]; N = 27,1
same,"Nervous system disorders AEs, (%) of subjects",[2]; N = 27,(7.4) %
same,"Nervous system disorders AEs, n of subjects",[2]; N = 27,2
same,"Pain in extremity AE, (%) of subjects",[2]; N = 27,(7.4) %
same,"Pain in extremity AE, n of subjects",[2]; N = 27,2
same,"Patients with AEs, (%) of subjects",[2]; N = 27,(40.7) %
same,"Patients with AEs, n of subjects",[2]; N = 27,11
same,"Pruritus AE, (%) of subjects",[2]; N = 27,(3.7) %
same,"Pruritus AE, n of subjects",[2]; N = 27,1
same,"Respiratory, thoracic and mediastinal disorders AEs, (%) of subjects",[2]; N = 27,(3.7) %
same,"Respiratory, thoracic and mediastinal disorders AEs, n of subjects",[2]; N = 27,1
same,"Skin and subcutaneous disorders AEs, (%) of subjects",[2]; N = 27,(7.4) %
same,"Skin and subcutaneous disorders AEs, n of subjects",[2]; N = 27,2
same,"Skin lesion AE, (%) of subjects",[2]; N = 27,(3.7) %
same,"Skin lesion AE, n of subjects",[2]; N = 27,1
same,"Tympanic membrane perforation AE, (%) of subjects",[2]; N = 27,(3.7) %
same,"Tympanic membrane perforation AE, n of subjects",[2]; N = 27,1
same,"Constipation related to study drug, (%)",[2]; Total N = 27,3.7%
same,"Dysgraphia related to study drug, (%)",[2]; Total N = 27,3.7%
same,"Flatulence related to study drug, (%)",[2]; Total N = 27,3.7%
same,"Headache related to study drug, (%)",[2]; Total N = 27,7.4%
same,"Increased tendency to bruise related to study drug, (%)",[2]; Total N = 27,3.7%
same,"Muscle spasms related to study drug, (%)",[2]; Total N = 27,3.7%
same,"Pain in extremity related to study drug, (%)",[2]; Total N = 27,3.7%
same,"Patients with AE(s) related to study drug, (%)",[2]; Total N = 27,14.8%
same,"Pruritus related to study drug, (%)",[2]; Total N = 27,3.7%
same,"GNT Total correct, Difference, AQW051 15 mg vs. placebo",[3],−1.5
same,"CRT Percent correct trials, Difference AQW051 15 mg vs. Placebo","[4]; MCI patient only N=38, p=0.0918",0.5
same,"CRT Median latency, Difference, AQW051 15 mg vs. placebo","[4]; MCI patient only N=38, p=0.0966",−23
same,"CRT Median latency, Difference, AQW051 15 mg vs. placebo","[4]; PD analysis set N=54, p=0.3273",−9.5
same,"CRT Percent correct trials, Difference AQW051 15 mg vs. Placebo","[4]; all patients N=54, p=0.0632",0.5
same,"PRM Percent correct delayed, Difference, AQW051 15 mg vs. placebo",[5]; p=0.4244,0
same,"PRM Mean correct latency delayed, Difference, AQW051 15 mg vs. placebo",[5]; p=0.7864,150 ms
same,"PRM Percent correct immediate, Difference, AQW051 15 mg vs. placebo",[5]; p=0.8090,−4
same,"PRM Mean correct latency immediate, Difference, AQW051 15 mg vs. placebo",[5]; p=0.8328,198 ms
same,"SWM Between errors (6 boxes), Difference AQW051 15 mg vs. Placebo","[6]; MCI patient only N=38, p=0.0290",−2.5
same,"SWM Between errors, Difference AQW051 15 mg vs. Placebo","[6]; MCI patient only N=38, p=0.0845",−5
same,"SWM Between errors (6 boxes), Difference AQW051 15 mg vs. Placebo","[6]; all patients N=54, p=0.0430",−2
same,"SWM Between errors, Difference AQW051 15 mg vs. Placebo","[6]; all patients N=54, p=0.0701",−3.5
same,"SWM Between errors (4 boxes), Difference AQW051 15 mg vs. Placebo","[6]; all patients N=54, p=0.0866",−0.5
same,"PAL of total errors (2 shapes adj), Difference AQW051 15 mg vs. Placebo","[7]; MCI patient only N=38, p=0.0239",0
same,"PAL total trials (adj), Difference AQW051 15 mg vs. Placebo","[7]; MCI patient only N=38, p=0.0877",−1.5
same,"PAL total errors (2 shapes adj), Difference AQW051 15 mg vs. Placebo","[7]; all patients N=54, p=0.0142",0
same,"PAL total errors (6 shapes adj), Difference AQW051 15 mg vs. Placebo","[7]; all patients N=54, p=0.0840",−2
same,"PAL total trials (adj), Difference AQW051 15 mg vs. Placebo","[7]; all patients N=54, p=0.0846",−1
